Test results: ChEMBL document CHEMBL4613208, “Isatin derivatives and their anti-bacterial activities” (Eur J Med Chem, 2019)

Assays:
Assay type in all cases: functional
Conditions in all cases: read-out: IZ
Escherichia coli = assay: Antibacterial activity against Escherichia coli assessed as zone of inhibition at 100 ug/ml
Pseudomonas aeruginosa = assay: Antibacterial activity against Pseudomonas aeruginosa assessed as zone of inhibition at 100 ug/ml
Staphylococcus aureus = assay: Antibacterial activity against Staphylococcus aureus assessed as zone of inhibition at 100 ug/ml
Bacillus cereus = assay: Antibacterial activity against Bacillus cereus assessed as zone of inhibition at 100 ug/ml

Measured: zone of inhibition at 100 µg/mL

Cc1nc2ccccc2cc1C(=O)N/N=C1\C(=O)Nc2ccc(F)cc21
6 to 19 mm: all assays above

O=C(COc1ccc(N2C(=O)CSC2c2ccccc2)c2cccnc12)N/N=C1\C(=O)N(CN2CCOCC2)c2ccccc21 (stereo unspecified)
6 to 19 mm: all assays above

Cc1nc2ccccc2cc1C(=O)N/N=C1\C(=O)Nc2c(Br)cc(Br)cc21
6 to 19 mm: all assays above

Cc1nc2ccccc2cc1C(=O)N/N=C1\C(=O)Nc2ccc(F)c(Cl)c21
6 to 19 mm: all assays above

COc1ccc(C2SCC(=O)N2c2ccc(OCC(=O)N/N=C3\C(=O)N(CN4CCCCC4)c4ccccc43)c3ncccc23)cc1 (stereo unspecified)
6 to 19 mm: all assays above

CN1CCN(CN2C(=O)/C(=N\NC(=O)COc3ccc(N4C(=O)C(Cl)C4c4ccccc4)c4cccnc34)c3ccccc32)CC1 (stereo unspecified)
6 to 19 mm: all assays above

Cc1ccc(C2SCC(=O)N2c2ccc(OCC(=O)N/N=C3\C(=O)N(CN4CCCCC4)c4ccccc43)c3ncccc23)cc1 (stereo unspecified)
6 to 19 mm: all assays above

O=C(COc1ccc(N2C(=O)C(Cl)C2c2ccc(Br)cc2)c2cccnc12)N/N=C1\C(=O)N(CN2CCCCC2)c2ccccc21 (stereo unspecified)
6 to 19 mm: all assays above

Cc1nc2ccccc2cc1C(=O)N/N=C1\C(=O)Nc2c(Cl)cccc21
6 to 19 mm: all assays above

Cc1nc2ccccc2cc1C(=O)N/N=C1\C(=O)Nc2c1ccc(Cl)c2Cl
6 to 19 mm: all assays above

Cc1nc2ccccc2cc1C(=O)N/N=C1\C(=O)Nc2ccc([N+](=O)[O-])cc21
6 to 19 mm: all assays above

O=C(COc1ccc(N2C(=O)CSC2c2ccccc2)c2cccnc12)N/N=C1\C(=O)N(CN2CCCCC2)c2ccccc21 (stereo unspecified)
6 to 19 mm: all assays above

CN1CCN(CN2C(=O)/C(=N\NC(=O)COc3ccc(N4C(=O)CSC4c4ccccc4)c4cccnc34)c3ccccc32)CC1 (stereo unspecified)
6 to 19 mm: all assays above

Cc1nc2ccccc2cc1C(=O)N/N=C1\C(=O)Nc2cc(Cl)cc(Cl)c21
6 to 19 mm: all assays above
